Data from article PMC12040169 (PLOS Biology, 2025).

Test: in vitro
Details: human, hela cells, % viability

First: O=S(=O)(Nc1ccc(C(O)(C(F)(F)F)C(F)(F)F)cc1)c1ccc(N2CCOCC2)nc1 [CBK062100]
Second: O=S(=O)(Nc1ccc(C(O)(C(F)(F)F)C(F)(F)F)cc1)c1ccc(Cl)c(Cl)c1 [CBK062102]
The viability at 28.5 h, 10 µM of the first is lower: 94.9% for the first, 111% for the second.

Compared with `O=S(=O)(Nc1ccc(C(O)(C(F)(F)F)C(F)(F)F)cc1)c1ccccc1Br` [CBK062101], `O=S(=O)(Nc1ccc(C(O)(C(F)(F)F)C(F)(F)F)cc1)c1ccc(-c2ccon2)s1` [CBK062105] is lower in viability at 28.5 h, 10 µM: 96.3% for the first, 91.2% for the second.

First: Cc1nn(C)c(Cl)c1S(=O)(=O)NCc1ccc(C(F)(F)F)c(F)c1 [CBK062111]
Second: Cc1c(S(=O)(=O)NCc2ccc(C(F)(F)F)c(F)c2)cnn1-c1ccccc1 [CBK062115]
The viability at 28.5 h, 10 µM of the first is lower: 93.8% for the first, 108% for the second.

First: Cc1nn(C)c(Cl)c1S(=O)(=O)Nc1cccc(-c2nnn[nH]2)c1 [CBK062127]
Second: Cc1nn(C)c(Cl)c1S(=O)(=O)Nc1ccc2nsnc2c1 [CBK062222]
The viability at 28.5 h, 10 µM of the first is higher: 96% for the first, 69.6% for the second.

Going from `CCc1nnc(NS(=O)(=O)c2cc(C(=O)O)c(Cl)cc2F)s1` [CBK062195] to `O=S(=O)(c1ccc(C(F)(F)F)cc1Cl)N1CCN(Cc2ccc(F)cc2F)CC1` [CBK062739], the viability at 28.5 h, 10 µM rises from 90.9% to 107%.

First: CN1CCOc2cc(S(=O)(=O)Nc3cccnc3N3CCOCC3)ccc21 [CBK062299]
Second: CN1CCOc2cc(S(=O)(=O)Nc3nnn[nH]3)ccc21 [CBK062389]
The viability at 28.5 h, 10 µM of the first is higher: 108% for the first, 99.1% for the second.

First: Cc1cnc(CNS(=O)(=O)c2c(C)noc2C)cn1 [CBK062328]
Second: Cc1noc(C)c1S(=O)(=O)Nc1nnn[nH]1 [CBK062378]
The viability at 28.5 h, 10 µM of the first is lower: 104% for the first, 112% for the second.

First: Cc1cc(OC(F)(F)F)ccc1NS(=O)(=O)c1ccc(-c2ccon2)s1 [CBK062361]
Second: O=S(=O)(Nc1nnn[nH]1)c1ccc(-c2ccon2)s1 [CBK062391]
The viability at 28.5 h, 10 µM of the first is lower: 86.7% for the first, 97.7% for the second.

Compared with `O=S(=O)(Nc1nnn[nH]1)c1cccc(C(F)(F)F)c1` [CBK062377], `O=S(=O)(Nc1nnn[nH]1)c1ccc(-c2ccccn2)s1` [CBK062589] is lower in viability at 28.5 h, 10 µM: 108% for the first, 106% for the second.

Going from `O=S(=O)(Nc1nnn[nH]1)c1ccc(N2CCOCC2)nc1` [CBK062385] to `O=S(=O)(Nc1nnn[nH]1)c1ccc(-c2cnco2)s1` [CBK062394], the viability at 28.5 h, 10 µM rises from 99% to 109%.

First: O=S(=O)(c1ccccc1Br)N1CCOCC1 [CBK062404]
Second: CN1CCN(S(=O)(=O)c2ccccc2Br)CC1 [CBK062435]
The viability at 28.5 h, 10 µM of the first is higher: 96.9% for the first, 93.2% for the second.

Compared with `O=S(=O)(c1ccc(Br)cc1C(F)(F)F)N1CCOCC1` [CBK062405], `CC(C)CN1CCCN(S(=O)(=O)c2ccc(C(F)(F)F)cc2Cl)CC1` [CBK062943] is lower in viability at 28.5 h, 10 µM: 102% for the first, 86.5% for the second.

Compared with `CN1CCN(S(=O)(=O)c2cccc(C(F)(F)F)c2)CC1` [CBK062425], `CN1CCN(S(=O)(=O)c2ccc3oc(=O)ccc3c2)CC1` [CBK062431] is higher in viability at 28.5 h, 10 µM: 103% for the first, 118% for the second.

Going from `Cc1nn(C)c(Cl)c1S(=O)(=O)N1CCN(C)CC1` [CBK062426] to `CN1CCN(S(=O)(=O)c2cccc3nsnc23)CC1` [CBK062428], the viability at 28.5 h, 10 µM falls from 106% to 102%.

Compared with `O=S(=O)(Nc1ccc2[nH]ncc2c1)c1ccc(Oc2ccccc2)cc1` [CBK062522], `O=[N+]([O-])c1cc(S(=O)(=O)Nc2ccc3[nH]ncc3c2)ccc1Cl` [CBK062537] is higher in viability at 28.5 h, 10 µM: 82.9% for the first, 84.6% for the second.

First: Cc1noc(C)c1S(=O)(=O)Nc1cc(C(F)(F)F)ccc1N1CCOCC1 [CBK062545]
Second: Cc1c(S(=O)(=O)Nc2cc(C(F)(F)F)ccc2N2CCOCC2)cnn1-c1ccccc1 [CBK062551]
The viability at 28.5 h, 10 µM of the first is lower: 90.4% for the first, 99.7% for the second.

Going from `O=S(=O)(Nc1cc(C(F)(F)F)ccc1N1CCOCC1)c1ccc(-c2ccccn2)s1` [CBK062557] to `O=S(=O)(c1ccc(C(F)(F)F)cc1Cl)N1CCN(Cc2c[nH]nc2-c2cccs2)CC1` [CBK062864], the viability at 28.5 h, 10 µM rises from 79.5% to 108%.

Compared with `O=S(=O)(Nc1cccc2nonc12)c1ccccc1Br` [CBK062577], `CCn1c(-c2nonc2NC(C)=O)nc2ccccc21` [CBK062645] is lower in viability at 28.5 h, 10 µM: 102% for the first, 80% for the second.

Compared with `Cn1nc(-c2ccc(S(=O)(=O)NCCN3CCNC3=O)s2)cc1C(F)(F)F` [CBK062610], `COC(=O)CCc1ccc(S(=O)(=O)N2CCCN(Cc3cccc(C(F)(F)F)c3)CC2)cc1` [CBK062983] is higher in viability at 28.5 h, 10 µM: 91.6% for the first, 100% for the second.

Going from `CC(=O)Nc1nonc1-c1nc2ccccc2n1CCC#N` [CBK062641] to `N#Cc1nonc1NCn1nnc2ccccc21` [CBK062650], the viability at 28.5 h, 10 µM falls from 100% to 81.7%.

First: CCCCCCC(C)n1c(-c2nonc2N)nc2ccccc21 (stereo not shown) [CBK062648]
Second: CCC(C)(C)c1ccc(S(=O)(=O)N2CCCN(Cc3c(-c4ccccc4)noc3C)CC2)cc1 [CBK062888]
The viability at 28.5 h, 10 µM of the first is higher: 94.2% for the first, 92.8% for the second.

Going from `N#CCn1nnc(-c2ccc3c(c2)OCO3)n1` [CBK062663] to `CCC(C)(C)c1ccc(S(=O)(=O)N2CCCN(Cc3cccc4c3OCO4)CC2)cc1` [CBK062872], the viability at 28.5 h, 10 µM rises from 98.7% to 100%.

Compared with `CCN(C(=O)c1ccc(=O)[nH]c1)C(CC1CCCCC1)c1ccccc1` (stereo not shown) [CBK062678], `CCCC(=O)c1ccc(S(=O)(=O)N2CCCN(Cc3c[nH]nc3-c3ccccc3)CC2)cc1` [CBK062916] is lower in viability at 28.5 h, 10 µM: 91.1% for the first, 83.9% for the second.

Compared with `CC(C)CN(CC(=O)NC1(c2ccccc2)CCC1)C(=O)N(C)C` [CBK062704], `CCOc1ccc(S(=O)(=O)N2CCCN(CC(C)C)CC2)c2cccnc12` [CBK062758] is higher in viability at 28.5 h, 10 µM: 96.1% for the first, 97% for the second.

Going from `Cc1cc(CN2CCN(S(=O)(=O)c3ccc(-c4ccccc4)cc3)CC2)cc(C)c1O` [CBK062747] to `N#Cc1ccc(CN2CCN(S(=O)(=O)c3ccc(-c4ccccc4)cc3)CC2)cc1` [CBK062752], the viability at 28.5 h, 10 µM falls from 115% to 105%.

Compared with `CCOc1ccc(S(=O)(=O)N2CCCN(Cc3ccc(F)cc3F)CC2)c2cccnc12` [CBK062757], `CCOc1ccc(S(=O)(=O)N2CCN(Cc3cccc(F)c3C)CC2)c2cccnc12` [CBK062794] is lower in viability at 28.5 h, 10 µM: 109% for the first, 78.3% for the second.

Going from `CCOc1ccc(S(=O)(=O)N2CCCN(Cc3ccc(C#N)cc3)CC2)c2cccnc12` [CBK062759] to `CCOc1ccc(S(=O)(=O)N2CCN(Cc3cc(C(=O)OC)n(C)c3)CC2)c2cccnc12` [CBK062796], the viability at 28.5 h, 10 µM falls from 107% to 92.6%.

Going from `N#Cc1cc(CN2CCCN(S(=O)(=O)c3ccc(C(=O)c4ccccc4)cc3)CC2)ccc1F` [CBK062768] to `COc1ccc(CN2CCCN(S(=O)(=O)c3ccc(C(=O)c4ccccc4)cc3)CC2)cc1F` [CBK062855], the viability at 28.5 h, 10 µM falls from 109% to 97.7%.

Going from `O=C(c1ccccc1)c1ccc(S(=O)(=O)N2CCCN(Cc3c[nH]nc3-c3ccccc3)CC2)cc1` [CBK062773] to `O=C(c1ccccc1)c1ccc(S(=O)(=O)N2CCCN(Cc3cc(F)c(F)c(F)c3)CC2)cc1` [CBK062777], the viability at 28.5 h, 10 µM rises from 85.1% to 91.2%.

Compared with `CCOC(=O)C1CC1CN1CCN(S(=O)(=O)c2ccc(OCC)c3ncccc23)CC1` (stereo not shown) [CBK062785], `CCC(C)(C)c1ccc(S(=O)(=O)N2CCN(Cc3cccc4cccnc34)CC2)cc1` [CBK062830] is higher in viability at 28.5 h, 10 µM: 92.9% for the first, 98.1% for the second.

Compared with `O=S(=O)(c1ccc(-n2cnc(Cl)c2Cl)cc1)N1CCCN(Cc2csc(-c3ccccc3)n2)CC1` [CBK062790], `O=S(=O)(c1ccc(-n2cnc(Cl)c2Cl)cc1)N1CCN(Cc2ccc(O)c(F)c2)CC1` [CBK062803] is lower in viability at 28.5 h, 10 µM: 104% for the first, 95.8% for the second.

Compared with `COC(=O)CCc1ccc(S(=O)(=O)N2CCN(Cc3ccc(O)c(F)c3)CC2)cc1` [CBK062813], `CCCC(=O)c1ccc(S(=O)(=O)N2CCN(Cc3ccc(O)c(F)c3)CC2)cc1` [CBK062959] is higher in viability at 28.5 h, 10 µM: 88.9% for the first, 111% for the second.

First: COC(=O)CCc1ccc(S(=O)(=O)N2CCN(Cc3cc(C)c(O)c(C)c3)CC2)cc1 [CBK062814]
Second: COC(=O)CCc1ccc(S(=O)(=O)N2CCCN(Cc3cc(Cl)cc(Cl)c3)CC2)cc1 [CBK062982]
The viability at 28.5 h, 10 µM of the first is higher: 113% for the first, 97.2% for the second.

Going from `CCC(C)(C)c1ccc(S(=O)(=O)N2CCN(Cc3c(C)nn(C)c3C)CC2)cc1` [CBK062835] to `CCC(C)(C)c1ccc(S(=O)(=O)N2CCCN(Cc3c[nH]c(=O)[nH]c3=O)CC2)cc1` [CBK062881], the viability at 28.5 h, 10 µM falls from 97.2% to 91.8%.

First: CCCC(=O)c1ccc(S(=O)(=O)N2CCN(CCCOC3CCCCO3)CC2)cc1 (stereo not shown) [CBK062858]
Second: CCCC(=O)c1ccc(S(=O)(=O)N2CCCN(Cc3cc(Br)cs3)CC2)cc1 [CBK062896]
The viability at 28.5 h, 10 µM of the first is higher: 96.6% for the first, 91.2% for the second.

First: CCC(C)(C)c1ccc(S(=O)(=O)N2CCCN(Cc3ccnc4ccccc34)CC2)cc1 [CBK062865]
Second: Cc1c(F)cccc1CN1CCCN(S(=O)(=O)c2ccc(-c3ccccc3)cc2)CC1 [CBK062977]
The viability at 28.5 h, 10 µM of the first is lower: 92.1% for the first, 95.9% for the second.

Compared with `CCCC(=O)c1ccc(S(=O)(=O)N2CCCN(Cc3ccc(C#N)cc3)CC2)cc1` [CBK062895], `CCCC(=O)c1ccc(S(=O)(=O)N2CCCN(Cc3ccc(F)c(C#N)c3)CC2)cc1` [CBK062910] is higher in viability at 28.5 h, 10 µM: 106% for the first, 114% for the second.

First: CCCC(=O)c1ccc(S(=O)(=O)N2CCCN(Cc3cccnc3N3CCOCC3)CC2)cc1 [CBK062900]
Second: CCCC(=O)c1ccc(S(=O)(=O)N2CCCN(Cc3ccc(F)c(C(F)(F)F)c3)CC2)cc1 [CBK062918]
The viability at 28.5 h, 10 µM of the first is higher: 93.9% for the first, 93% for the second.

Going from `CCCC(=O)c1ccc(S(=O)(=O)N2CCCN(Cc3ccc4cccc(O)c4n3)CC2)cc1` [CBK062901] to `CCCC(=O)c1ccc(S(=O)(=O)N2CCCN(Cc3c(C)[nH]c(C(=O)OCC)c3C)CC2)cc1` [CBK062947], the viability at 28.5 h, 10 µM falls from 102% to 101%.

First: N#Cc1ccc(CN2CCCN(S(=O)(=O)c3ccc(C(F)(F)F)cc3Cl)CC2)cc1 [CBK062939]
Second: N#Cc1ccc(CN2CCN(S(=O)(=O)c3ccc(-n4cnc(Cl)c4Cl)cc3)CC2)cc1 [CBK062972]
The viability at 28.5 h, 10 µM of the first is lower: 98% for the first, 104% for the second.

Compared with `COC(=O)CCc1ccc(S(=O)(=O)N2CCCN(Cc3cccc(Cl)c3Cl)CC2)cc1` [CBK062988], `COC(=O)CCc1ccc(S(=O)(=O)N2CCCN(Cc3cccc4c3OCO4)CC2)cc1` [CBK062993] is lower in viability at 28.5 h, 10 µM: 93.5% for the first, 88.8% for the second.
